These results are taken from patent US20100330049A1, “METHOD FOR GENERATING ISLET BETA CELLS FROM DEDIFFERENTIATED EXOCRINE PANCREATIC CELLS” (Vrije Universiteit Brussel, priority 2008, published 2010).

Holding throughout (type): cell-based, rat
The subject of one data set is acinar cells. Kind of data set: acinar-to-beta cell conversion in monolayer culture with differentiation factors (immunocytochemical cell counts). As to conditions: for toxic effects on the epithelial monolayers: Jagged1 2 μg/ml, Dll4 5 μg/ml, 3 days culture; for beta cell neogenesis (acino-insular conversion): exposure of EGF and LIF treated cells to Notch1 ligands; for expression of Ngn3, Pdx1 and insulin / reduction of the number of newly formed beta cells: ligands immobilized on culture plates, EGF/LIF-treated acinar cells; for expression of Pdx1 during 72 h exposure to EGF and LIF (FIG. 2C) / expression of insulin during 72 h exposure to EGF and LIF (FIG. 2E) / re-expression of Ngn3 during 72 h exposure to EGF and LIF (FIG. 2A): n=7, compared to EGF and LIF controls. The text has this: Male 10-12 week old Wistar rats (Charles River Laboratories) weighing 250-300 g were used for the isolation of cells from the pancreas. Pancreata were partially dissociated with collagenase and exocrine acini were purified by centrifugal elutriation as published before (Rooman et al., 2000 Diabetologia 43:907-914). All animal experimentation was approved by the Ethical Committee of the Free University of Brussels.
Acinar cells were pre-cultured for 4 days in bacteriological Petri dishes (Nunc) in suspension culture in RPMI-1640 Glutamax-I medium supplemented with 10% fetal bovine serum (FBS, Invitrogen), penicillin (75 mg/l) (Continental Pharma) and antibiotics (Sigma, St Louis, Mo., USA). Geneticin Sulphate (50 μg/ml) (Sigma) was used to suppress fibroblast overgrowth in the culture. Medium was replaced daily during this pre-culture period. At the end of the pre-culture, cells were treated with alloxan (10 mM, Sigma) for 10 min at 37° C. to remove contaminating beta cells, and transferred to 24-well plates (Falcon, BD Biosciences) to form adherent cultures. Adherent monolayers were further cultured with RPMI supplemented with 1% FBS and antibiotics (controls). For growth factor stimulation of neogenesis this medium was supplemented with 50 ng/ml human recombinant epidermal growth factor (EGF) (Sigma,) and 40 ng/ml recombinant mouse leukemia inhibitory factor (LIF) (Sigma) (Baeyens et al. Diabetologia 48:49-57.). Stimulation of Notch signal transduction was performed using the recombinant human ligands Jagged1 (2 μg/ml, R&D Systems) and Dll4 (5 μg/ml, R&D Systems). For effective stimulation, the ligands were immobilized to the bottom of the multiwell plates prior to monolayer formation. Cell monolayers were analyzed after a culture period of 3 days in the latter media. […] Notch signaling inhibition was achieved using a recombinant form of the rat Notch1 extracellular domain (Notch1-EC, 10 μg/ml, R&D Systems). […] Proliferation was performed by bromo-deoxyuridin (BrdU) (Sigma) pulse labeling of 6 hours.
Immunocytochemical staining of the monolayers was performed directly in the 24-well plates. For this purpose, the cell monolayers were fixed for 10 min with 4% buffered formaldehyde followed by 20 min methanol (−20° C.) for cell permeabilization. Tissues were fixed with the same fixative for 4 hours and processed for paraffin embedding. Paraffin sections were used for immunostaining as described (Bouwens et al. 1994 Diabetes 43:1279-1283). Primary antibodies used in this study are polyclonal anti-insulin (C. Van Schravendijk, VUB, Brussels) (Bouwens et al. 1994 Diabetes 43:1279-1283; Bouwens and De 1996. J. Histochem. Cytochem. 44:947-951), polyclonal anti-rat C-peptide-I (O. D. Madsen, Hagedorn Research Institute, Gentofte, Denmark) (Blume et al. 1992. Mol. Endocrinol. 6:299-307), polyclonal anti-Pdx1 (O. D. Madsen) (Rooman et al. 2000 Diabetologia 43:907-914), polyclonal anti-Ngn3 (Schwitzgebel et al. 2000. Development 127:3533-3542), monoclonal anti-cytokeratin-20 (CK20) (Novocastra) (Bouwens et al. 1994 Diabetes 43:1279-1283; Bouwens and De 1996 J. Histochem. Cytochem. 44:947-951), monoclonal anti-synaptophysin (Novocastra), polyclonal anti-MafA (Bethyl Laboratories) (Nishimura et al. 2006 Dev. Biol. 293:526-539), polyclonal anti-Glut2 (Wak-Chemie), polyclonal anti-Mist1 (SF Konieczny) (Pin et al. 2000 Anat. Rec. 259:157-167), polyclonal anti-luciferase (Promega Benelux B. V.), polyclonal anti-IAPP (Advanced Chemtech), polyclonal anti-ChromograninA (Tebu-Bio), anti-BrdU (MP Biomedicals) and polyclonal anti-α-amylase (Sigma). Secondary antibodies conjugated with fluorescein isothiocyanate, tetramethylrodamine isothiocyanate or Cy5 (Jackson Immunoresearch) were used as described previously (Gu et al., 2002 Development 129:2447-2457). DNA was visualized using Hoechst 33342 (Invitrogen).

In another data set the test system is Notch1 mRNA. Kind of data set: knockdown efficiency of shRNA viruses, quantitative RT-PCR: Notch1 mRNA. To be noted: corrected for actin, normalized to control virus Le-Scrambled-DsRed, n = 3. The text has this:
(§1) Specific RNAi target sequences were developed using dedicated software available through the Whitehead Institute for Biomedical Research website (http://jura.wi.mit.edu/bio/) (Yuan et al. 2004 Nucleic Acids Res. 32:W130-W134). Corresponding oligo DNA molecules (Invitrogen) were cloned in the BglII and HindIII sites of the pSuper.basic vector (Oligoengine). Insert-containing clones were PCR-selected and sequenced. DNA from clones containing correct inserts was cut with EcoRI-ClaI, which released a DNA fragment containing the H1 promoter and the cloned oligo duplex, which was subsequently subcloned in the EcoRI-ClaI sites of the pTrip vector containing a DsRed reporter (Wiznerowicz and Trono 2003, J. Virol. 77:8957-8961). Screening for RNAi activity of the constructs was performed as follows: AR42J-B13 cells were plated at 70% confluency in 24 well plates at day 0. After allowing the cells to attach, 500 ng DNA of the appropriate pTrip constructs was transfected per well. After an additional 24 hours, cells were processed for quantitative RT-PCR analysis, in which 500 ng total RNA was used per condition.
(§2) The data illustrated in Table 7 represent the efficiency of knockdown of the different shRNA viruses, measured by quantitative RT-PCR. All samples are corrected for RNA input (endogenous control: actin) and normalized to conditions transduced with control virus (Le-Scrambled-DsRed). […]

The test system of another data set is Hes1 mRNA. Kind of data set: knockdown efficiency of shRNA viruses, quantitative RT-PCR: Hes1 mRNA. To be noted: corrected for actin, normalized to control virus Le-Scrambled-DsRed, n = 3.
From the text: as §1, §2

As to “Dll4: recombinant human Notch ligand, immobilized to the plate bottom”, in the data set on acinar cells, the “toxic effects on the epithelial monolayers” value was “no toxic effects”; the “beta cell neogenesis (acino-insular conversion)” value is “near complete abrogation”; the “expression of Ngn3, Pdx1 and insulin” value is “strongly inhibited”; the “reduction of the number of newly formed beta cells” value is 80%. In the data set with acinar cells, the “expression of Pdx1 during 72 h exposure to EGF and LIF (FIG. 2C)” value (“expression of Pdx1 during 72 h exposure” below) is “prevents this expression”; the “expression of insulin during 72 h exposure to EGF and LIF (FIG. 2E)” value (“expression … (FIG. 2E)” for short) is “prevents this expression”; the “re-expression of Ngn3 during 72 h exposure to EGF and LIF (FIG. 2A)” value (“re-expression” for short) is listed as “almost completely abrogates this pattern”.

Take “Jagged1: recombinant human Notch ligand, immobilized to the plate bottom”: in the data set with acinar cells, the “toxic effects on the epithelial monolayers” value is “no toxic effects”; the “beta cell neogenesis (acino-insular conversion)” value is “near complete abrogation”; the “expression of Ngn3, Pdx1 and insulin” value is “strongly inhibited”; the “reduction of the number of newly formed beta cells” value came out at 80%. Besides, in the data set on acinar cells, the “expression of Pdx1 during 72 h exposure” value was “prevents this expression”; the “expression … (FIG. 2E)” value is given as “prevents this expression”; the “re-expression” value is “almost completely abrogates this pattern”.

Turning to “Le-Scrambled-DsRed: negative control RNAi lentivirus, shScrambled GGUAUCUACUAGAUGUACU (SEQ ID NO:3), DsRed reporter”, the “Notch1 mRNA expression (Mean ± SEM)” value in the data set with Notch1 mRNA stood at 100.0 ± 0.0. Further, the “Hes1 mRNA expression (Mean ± SEM)” value with Hes1 mRNA was determined as 100.0 ± 0.0.

Consider “Notch1-EC: recombinant form of the rat Notch1 extracellular domain, Notch signaling inhibitor (R&D Systems)”, for which the “higher number of insulin-positive cells” value in the data set with acinar cells (Notch1-EC added to EGF and LIF) came out at 3 fold. The “cells adopting a beta cell phenotype” value with acinar cells (acinar cell culture, 0.5% in control conditions) was “more than 30%”. Further, in the data set on acinar cells (excess Notch1-EC in culture medium with EGF and LIF), the “proportion of cells positive for Ngn3, Pdx1 and insulin” value is “marked increase”. Moreover, in the data set with acinar cells, the “expression of Pdx1 during 72 h exposure” value was “amplifies the number of cells expressing Pdx1”; the “expression … (FIG. 2E)” value was “amplifies the number of insulin-positive cells”; the “re-expression” value is reported as “enhances the potency of the differentiation factors”.
